Laboratory results: US12227485B2, “Compounds useful for the treatment of infection with Mannheimia haemolytica or Histophilus somni” (Intervet Inc., priority 2018, dated 2025)
Converted amounts (≈) assume the structure as drawn.

Key:
[1] = test system: Mannheimia haemolytica; experiment: MIC by broth-microdilution method (CLSI VET01-A4), Mannheimia haemolytica strains; type: cell-based; conditions: for MIC MH 6357: Mannheimia haemolytica MH 6357 (M7/2), reference strain (cattle infection strain); for MIC MH 6374: Mannheimia haemolytica MH 6374 (ATCC 33396), reference strain; for MIC MH 10720: Mannheimia haemolytica MH 10720 (154); for MIC MH 10720 / MIC MH 12587 / MIC MH 13093: BRD field isolate; for MIC MH 12587: Mannheimia haemolytica MH 12587 (1071), macrolide-resistance: erm+, E+; for MIC MH 13093: Mannheimia haemolytica MH 13093 (XB0472-6014.1)
Method: (§1) For example, representative compounds were tested against Mannheimia haemolytica and Pasteurella multocida, using the conventional broth-dilution assay.
(§2) The Minimum inhibitory concentrations (MIC) of compounds according to the invention for a number of veterinary bacterial pathogens were determined by the broth-microdilution method according to CLSI document VET01-A4.
(§3) Microdilution trays containing a doubling dilution series of the test compound were used for the tests. The MIC results were interpreted according to the CLSI documents VET01-S3. The lowest concentration of compound at which no visible growth (i.e. no turbidity) detected by the unaided eye was recorded as the MIC.

[2] = test system: Pasteurella multocida; experiment: MIC by broth-microdilution method (CLSI VET01-A4), Pasteurella multocida strains; type: cell-based; conditions: for MIC PM 6267: Pasteurella multocida PM 6267 (P 2225 (L386)), reference strain (mouse infection strain); for MIC PM 6391: Pasteurella multocida PM 6391 (ATCC 43137), reference strain; for MIC PM 10775: Pasteurella multocida PM 10775 (080130003051); for MIC PM 10775 / MIC PM 12080: BRD field isolate; for MIC PM 12080: Pasteurella multocida PM 12080 (IV102277-0093)
Method: as §1, §2, §3

| Structure (SMILES) | MIC MH 6357 [1] [µM] | MIC MH 6374 [1] [µM] | MIC MH 10720 [1] [µM] | MIC MH 12587 [1] [µM] | MIC MH 13093 [1] [µM] | MIC PM 6267 [2] [µM] | MIC PM 6391 [2] [µM] | MIC PM 10775 [2] [µM] | MIC PM 12080 [2] [µM] |
| --- | --- | --- | --- | --- | --- | --- | --- | --- | --- |
| COCCNCc1ccc(C#Cc2ccc3c(NC(C(=O)NO)C(C)(C)N)ncnc3c2)cc1 (racemic) [Compound 18] | 25 (≈ 11.6 µg/mL) | 25 (≈ 11.6 µg/mL) | 6.3 (≈ 2.91 µg/mL) | 50 (≈ 23.1 µg/mL) | 25 (≈ 11.6 µg/mL) | 3.1 (≈ 1.43 µg/mL) | 6.3 (≈ 2.91 µg/mL) | 0.8 (≈ 0.37 µg/mL) | 12.5 (≈ 5.78 µg/mL) |
| C[C@@H](O)[C@H](Nc1ncnc2cc(C#Cc3ccc(CN4CCOCC4)cc3)ccc12)C(=O)NO [Compound 1] | 1.6 (≈ 0.738 µg/mL) | 3.1 (≈ 1.43 µg/mL) | 0.2 (≈ 0.0923 µg/mL) | 3.1 (≈ 1.43 µg/mL) | 3.1 (≈ 1.43 µg/mL) | 1.6 (≈ 0.738 µg/mL) | 0.2 (≈ 0.0923 µg/mL) | ≤0.1 | ≤0.1 |
| C[C@@H](O)[C@H](Nc1ncnc2cc(C#Cc3ccc(CNC4CC4)cc3)ccc12)C(=O)NO [Compound 2] | 0.8 (≈ 0.345 µg/mL) | 1.6 (≈ 0.69 µg/mL) | ≤0.1 | 3.1 (≈ 1.34 µg/mL) | 3.1 (≈ 1.34 µg/mL) | 1.6 (≈ 0.69 µg/mL) | 0.2 (≈ 0.0863 µg/mL) | ≤0.1 | ≤0.1 |
| COCCNCc1ccc(C#Cc2ccc3c(N[C@H](C(=O)NO)[C@@H](C)O)ncnc3c2)cc1 [Compound 3] | 6.3 (≈ 2.83 µg/mL) | 6.3 (≈ 2.83 µg/mL) | 6.3 (≈ 2.83 µg/mL) | 12.5 (≈ 5.62 µg/mL) | 6.3 (≈ 2.83 µg/mL) | 0.2 (≈ 0.0899 µg/mL) | 0.4 (≈ 0.18 µg/mL) | ≤0.1 | 3.1 (≈ 1.39 µg/mL) |
| C=CCNCc1ccc(C#Cc2ccc3c(N[C@H](C(=O)NO)[C@@H](C)O)ncnc3c2)cc1 [Compound 4] | 1.6 (≈ 0.69 µg/mL) | 3.1 (≈ 1.34 µg/mL) | 1.6 (≈ 0.69 µg/mL) | 6.3 (≈ 2.72 µg/mL) | 3.1 (≈ 1.34 µg/mL) | 0.2 (≈ 0.0863 µg/mL) | 0.4 (≈ 0.173 µg/mL) | ≤0.1 | 1.6 (≈ 0.69 µg/mL) |
| C[C@@H](O)[C@H](Nc1ncnc2cc(C#Cc3ccc(CNCc4ccccc4)cc3)ccc12)C(=O)NO [Compound 5] | 0.8 (≈ 0.385 µg/mL) | 0.8 (≈ 0.385 µg/mL) | 0.8 (≈ 0.385 µg/mL) | 3.1 (≈ 1.49 µg/mL) | 1.6 (≈ 0.77 µg/mL) | ≤0.1 | 0.2 (≈ 0.0963 µg/mL) | ≤0.1 | 0.8 (≈ 0.385 µg/mL) |
| C[C@@H](O)[C@H](Nc1ncnc2cc(C#Cc3ccc(CNCC(F)(F)F)cc3)ccc12)C(=O)NO [Compound 6] | 0.8 (≈ 0.379 µg/mL) | 0.8 (≈ 0.379 µg/mL) | 0.4 (≈ 0.189 µg/mL) | 1.6 (≈ 0.758 µg/mL) | 0.8 (≈ 0.379 µg/mL) | ≤0.1 | ≤0.1 | ≤0.1 | 0.4 (≈ 0.189 µg/mL) |
| C[C@@H](O)[C@H](Nc1nsc2cc(C#Cc3ccc(CNC4CC4)cc3)ccc12)C(=O)NO [Compound 10] | 0.2 (≈ 0.0873 µg/mL) | 0.4 (≈ 0.175 µg/mL) | ≤0.1 | 0.8 (≈ 0.349 µg/mL) | 0.4 (≈ 0.175 µg/mL) | ≤0.1 | >100 | ≤0.1 | ≤0.1 |
| C=CCNCc1ccc(C#Cc2ccc3c(N[C@H](C(=O)NO)[C@@H](C)O)nsc3c2)cc1 [Compound 11] | 0.4 (≈ 0.175 µg/mL) | 0.4 (≈ 0.175 µg/mL) | ≤0.1 | 1.6 (≈ 0.698 µg/mL) | 0.8 (≈ 0.349 µg/mL) | ≤0.1 | 0.2 (≈ 0.0873 µg/mL) | ≤0.1 | 0.4 (≈ 0.175 µg/mL) |
| COCCNCc1ccc(C#Cc2ccc3c(N[C@H](C(=O)NO)[C@@H](C)O)nsc3c2)cc1 [Compound 12] | 0.8 (≈ 0.364 µg/mL) | 0.8 (≈ 0.364 µg/mL) | 0.2 (≈ 0.0909 µg/mL) | 3.1 (≈ 1.41 µg/mL) | 1.6 (≈ 0.727 µg/mL) | ≤0.1 | >100 | ≤0.1 | 0.8 (≈ 0.364 µg/mL) |
| C[C@@H](O)[C@H](Nc1nsc2cc(C#Cc3ccc(CN4CCOCC4)cc3)ccc12)C(=O)NO [Compound 13] | 3.1 (≈ 1.45 µg/mL) | 6.3 (≈ 2.94 µg/mL) | 1.6 (≈ 0.747 µg/mL) | 6.3 (≈ 2.94 µg/mL) | 3.1 (≈ 1.45 µg/mL) | ≤0.1 | 100 (≈ 46.7 µg/mL) | ≤0.1 | 1.6 (≈ 0.747 µg/mL) |
| C[C@@H](O)[C@H](Nc1nsc2cc(C#Cc3ccc(CNCc4ccccc4)cc3)ccc12)C(=O)NO [Compound 14] | 0.8 (≈ 0.389 µg/mL) | 0.8 (≈ 0.389 µg/mL) | ≤0.1 | 1.6 (≈ 0.779 µg/mL) | 0.8 (≈ 0.389 µg/mL) | ≤0.1 | 100 (≈ 48.7 µg/mL) | ≤0.1 | 0.2 (≈ 0.0973 µg/mL) |
| C[C@@H](O)[C@H](Nc1nsc2cc(C#Cc3ccc(CNCC(F)(F)F)cc3)ccc12)C(=O)NO [Compound 15] | 1.6 (≈ 0.766 µg/mL) | 1.6 (≈ 0.766 µg/mL) | ≤0.1 | 3.1 (≈ 1.48 µg/mL) | 1.6 (≈ 0.766 µg/mL) | ≤0.1 | >100 | ≤0.1 | 0.4 (≈ 0.191 µg/mL) |
